2 compounds from PMC12297304, “Molecular networking derived from untargeted LC-MS/MS analysis to discover inhibitors of RANKL-induced osteoclastogenesis from Egyptian marine sponge-associated fungi” (Scientific Reports, 2025) can be followed below.

Series [1] has as its system RANKL-induced formation of MNCs from RAW264 macrophages. The series is described as follows: Multinucleated TRAP+ve osteoclast (MNCs) counting assay. In kind it is cell-based, murine. Particulars: Mus musculus, RAW264.7, 96 h; RAW264 cells, RANKL 50 ng/mL, 4 days; read-out: IC50, inhibition of RANKL-induced formation of multinucleated osteoclasts (MNCs). Here is the method:
EtOAc fractions of all fungal CH3OH extracts were tested for their ability to inhibit TRAP activity and the formation of multinucleated osteoclasts (MNCs) in RANKL-treated RAW264 macrophages as previously reported[7],[24]. Briefly, RAW264 cells (RIKEN Cell Bank, Tsukuba) were cultured in MEMα medium supplemented with 10% heat-inactivated fetal bovine serum and 1% penicillin/streptomycin and incubated at 37 °C in a 5% CO2 humidified atmosphere in two 96-well plates at a density of 1000 and 6000 cells/well, for TRAP assay and MNCs staining assay, respectively. Samples were then added at a concentration of 50 and 20 µg/mL for extracts, 50, 20, and 10 µM for pure compounds, and 83 µM for the standard quercetin. […]
Following a 4-day incubation period, the differentiated cells were fixed with 4% paraformaldehyde solution (Sigma–Aldrich, USA), washed with PBS, and stained using a TRAP-staining solution, which consisted of 50 mM sodium tartrate, 45 mM sodium acetate, 0.1 mg/mL naphthol AS-MX phosphate (Sigma– Aldrich, USA), and 0.6 mg/mL fast red violet LB salt (Sigma–Aldrich, USA), pH 5.2, for 1 h or longer at room temperature. TRAP-positive cells, that stained red and contained 3 or more nuclei were determined to be multinuclear osteoclasts and were quantified in each well by counting MNCs in 8 fields/well using a light microscope.

The subject of series [2] is RAW264 macrophages. The series is described as follows: MTT cytotoxicity assay. The format is cell-based, murine. The conditions noted are these: at the highest tested concentration. Here is the method: After incubation of cells for one day, media was aspired and replaced with new one supplemented with treatments, whereas controls contained only DMSO. Cells were then kept at 37 °C for three days. Finally, 50 µL of 3-(4,5-dimethylthiazol-2-yl)−2,[…] bromide (MTT) solution (150 µg/mL in medium) was added after aspiration of medium, incubated under the same conditions for 3 h. Then 200 µL of DMSO were added to each well, after removal of the reaction solution, to dissolve the formed formazan salt crystals, and optical density was measured at 570 nm with a microplate reader.

The structures appear in SMILES notation. Entries after “also recorded” stand apart in the source; their conditions may differ.

Consider `COCC(O)COc1ccc(C(C)(C)c2ccc(OCC(O)COC)cc2)cc1` (stereo not shown) [Compound 1, 2,2-bis‐[4‐(2‐hydroxy-3-methoxy-propoxy)phenyl]propane], for which the IC50 in series [1] amounted to 57.1 µM. Also, the “Toxic effect against RAW264 macrophages” value in series [2] was “without cytotoxicity; also recorded: no toxic effect”.
Take `COc1cc(O)c2c(c1)C1=CC(O)C(O)CC1(C)OC2=O` (stereo not shown) [Compound 8, altenuene]: the IC50 in series [1] was 38.4 µM. In addition, the “Toxic effect against RAW264 macrophages” value in series [2] was “without cytotoxicity; also recorded: no toxic effect”.
